Here are results for 17 compounds from patent US8394803B2, “Gyrase inhibitors and uses thereof” (Vertex Pharmaceuticals Incorporated, priority 2005, dated 2013).

For one assay, the target named is E. coli Gyrase (Escherichia coli, UniProt P0AES6). In words: DNA Gyrase ATPase assay (E. coli Gyrase Ki). The class given is biochemical. Here is the method:
The ATP hydrolysis activity of DNA gyrase was measured by coupling the production of ADP through pyruvate kinase/lactate dehydrogenase to the oxidation of NADH. This method has been described previously (Tamura and Gellert, 1990, J. Biol. Chem., 265, 21342).
ATPase assays were carried out at 30° C. in buffered solutions containing 100 mM TRIS pH 7.6, 1.5 mM MgCl2, 150 mM KCl. The coupling system contains (final concentrations) 2.5 mM phosphoenol pyruvate, 200 μM nicotinamide adenine dinucleotide (NADH), 1 mM DTT, 30 ug/ml pyruvate kinase, and 10 ug/ml lactate dehydrogenase. 40 nanomolar enzyme and a DMSO solution of the inhibitor to a final concentration of 4% was added and the reaction mixture was allowed to incubate for 10 minutes at 30° C. The reaction was then started by the addition of ATP to a final concentration of 0.9 mM and the rate of NADH disappearance at 340 nanometers was measured over the course of 10 minutes. The Ki values were determined from rate versus concentration profiles.
The compound numbers correspond to the compound numbers in Table 2. Compounds having an activity designated as “A” provided a Ki inhibition value equal to or above 0.100 micromolar. Compounds having an activity designated as “B” provided a Ki inhibition value between 0.050 micromolar and 0.100 micromolar. […] The term “ND” means no data.

The subject of a further assay is Staphylococcus aureus. Nature of the assay: Susceptibility testing in liquid media (MIC), S. aureus. Conditions: 35° C. overnight, read-out: S. aureus MIC range. The class given is cell-based. As to the method:
(§1) Compounds of this invention were also tested for antimicrobial activity by susceptibility testing in liquid media. Such assays were performed within the guidelines of the latest NCCLS document governing such practices: “M7-A5 Methods for dilution Antimicrobial Susceptibility Tests for Bacteria that Grow Aerobically; Approved Standard—Fifth Edition (2000)”. Other publications such as “Antibiotics in Laboratory Medicine” (Edited by V. Lorian, Publishers Williams and Wilkins, 1996) provide essential practical techniques in laboratory antibiotic testing. Essentially, several discrete bacterial colonies of Staphylococcus aureus, Streptococcus pneumoniae, Haemophilus influenzae, or Enterococcus faecalis (3 to 7) from a freshly streaked plate were transferred to an appropriate rich broth medium such as MHB, and supplemented where appropriate for the more fastidious organisms. This was grown overnight to high density followed by a 1 or 2-thousand-fold dilution to give an inoculation density of between 5×10^5 and 5×10^6 CFU per mL. Alternatively, the freshly picked colonies can be incubated at 37° C. for about 4 to 8 hours until the culture equals or exceeds a turbidity of a 0.5 McFarland standard (approximately 1.5×10^8 cells per mL) and diluted to give the same CFU per mL as above. In a more convenient method, the inoculum was prepared using a commercially available mechanical device (the BBL PROMPT System) that involves touching five colonies directly with a wand, containing crosshatch grooves at its bottom, followed by suspension of the bacteria in an appropriate volume of saline. Dilution to the appropriate inoculum cell density was made from this cell suspension. The broth used for testing consists of MHB supplemented with 50 mg per L of Ca^2+ and 25 mg per L of Mg^2+. Standard dilution panels of control antibiotics were made and stored as in the NCCLS standard M7-A5, the dilution range typically being in the 128 μg per mL to […] (by 2-fold serial dilution). The test compounds were dissolved and diluted fresh for experimentation on the same day; the same or similar ranges of concentration as above being used. The test compounds and controls were dispensed into a multiwell plate and test bacteria added such that the final inoculation was approximately 5×10^4 CFU per well and the final volume was 100 μL. The plates were incubated at 35° C. overnight (16 to 20 hours) and checked by eye for turbidity or quantitated with a multiwell plate reader. […] Such determinations were also compared to the appropriate tables contained in the above two publications to ensure that the range of antibacterial activity is within the acceptable range for this standardized assay.
(§2) The compound numbers correspond to the compound numbers in Table 2.

The subject of a further assay is Streptococcus pneumoniae. Nature of the assay: Susceptibility testing in liquid media (MIC), S. pneumoniae. The class given is cell-based. Conditions: 35° C. overnight, read-out: S. pneumoniae MIC range. Here is the method: as §1, §2
For a further assay, the system named is Haemophilus influenzae. Nature of the assay: Susceptibility testing in liquid media (MIC), H. influenzae. The class given is cell-based. Conditions: 35° C. overnight, read-out: H. influenzae MIC range. As to the method: as §1, §2
Another assay relates to Enterococcus faecalis. In words: Susceptibility testing in liquid media (MIC), E. faecalis. The class given is cell-based. Conditions: 35° C. overnight, read-out: E. faecalis MIC range. As to the method: as §1, §2
For another assay, the target named is S. aureus TopoIV (Staphylococcus aureus, UniProt P0C1S7). In words: DNA Topo IV ATPase assay (S. aureus TopoIV Ki). Type of assay: biochemical. Conditions: 30° C., read-out: S. aureus Topo IV Ki Inhibition Ranges (Activity). As to the method: DNA Topo IV ATPase Assay:
The conversion of ATP to ADP by TopoIV enzyme was coupled to the conversion of NADH to NAD+ and measured by the change in absorbance at 340 nm. Topo4 was incubated with inhibitor (4% DMSO final) in buffer for 10 minutes at 30° C. Reaction was initiated with ATP and rates were monitored continuously for 20 minutes at 30° C. on a Molecular Devices SpectraMAX plate reader. The inhibition constant, Ki, was determined from plots of rate vs. [Inhibitor] fit to the Morrison Equation for tight binding inhibitors.
S. aureus TopoIV Buffer: 100 mM Tris 7.5, 2 mM MgCl2, 200 mM K●Glutamate, 2.5 mM phosphoenol pyruvate, 0.2 mM NADH, 1 mM DTT, 4.25 μg/mL linearized DNA, 50 μg/mL BSA, 30 μg/mL pyruvate kinase, and 10 μg/mL lactate dehyrodgenase (LDH).
The compound numbers correspond to the compound numbers in Table 2. Compounds having an activity designated as “A” provided a Ki inhibition value equal to or above 0.500 micromolar. […] The term “ND” means no data.

The mark [1] stands for this setting: ATPase assay, 30° C., 0.9 mM ATP, read-out: E. coli Gyrase Ki Inhibition Ranges (Activity).

What is called Ki is the equilibrium dissociation constant of an inhibitor or competing ligand from its target.

≈ marks a conversion by molar mass, not a printed value. Read-outs that look alike come from different tables or passages of the source.

Chain of S. aureus TopoIV (P0C1S7 whole entry): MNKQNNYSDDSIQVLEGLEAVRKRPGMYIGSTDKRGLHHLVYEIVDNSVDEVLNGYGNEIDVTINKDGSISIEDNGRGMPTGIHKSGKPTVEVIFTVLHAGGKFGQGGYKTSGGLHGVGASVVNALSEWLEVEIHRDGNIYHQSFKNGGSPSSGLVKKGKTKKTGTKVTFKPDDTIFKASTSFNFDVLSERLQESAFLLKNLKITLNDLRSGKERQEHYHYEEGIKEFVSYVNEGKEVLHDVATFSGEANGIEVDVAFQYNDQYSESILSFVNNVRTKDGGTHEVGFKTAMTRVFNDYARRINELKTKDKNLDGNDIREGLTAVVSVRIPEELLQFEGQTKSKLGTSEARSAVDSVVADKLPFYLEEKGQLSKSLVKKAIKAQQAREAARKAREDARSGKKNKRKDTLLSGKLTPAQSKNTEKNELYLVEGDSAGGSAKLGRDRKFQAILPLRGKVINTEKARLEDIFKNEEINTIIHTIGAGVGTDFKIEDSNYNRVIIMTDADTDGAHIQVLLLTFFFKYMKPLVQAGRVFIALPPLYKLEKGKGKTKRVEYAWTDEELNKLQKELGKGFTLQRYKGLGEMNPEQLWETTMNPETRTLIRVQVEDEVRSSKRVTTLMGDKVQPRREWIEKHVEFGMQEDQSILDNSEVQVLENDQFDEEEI
Chain of S. aureus TopoIV (P0C1U9 whole entry partner): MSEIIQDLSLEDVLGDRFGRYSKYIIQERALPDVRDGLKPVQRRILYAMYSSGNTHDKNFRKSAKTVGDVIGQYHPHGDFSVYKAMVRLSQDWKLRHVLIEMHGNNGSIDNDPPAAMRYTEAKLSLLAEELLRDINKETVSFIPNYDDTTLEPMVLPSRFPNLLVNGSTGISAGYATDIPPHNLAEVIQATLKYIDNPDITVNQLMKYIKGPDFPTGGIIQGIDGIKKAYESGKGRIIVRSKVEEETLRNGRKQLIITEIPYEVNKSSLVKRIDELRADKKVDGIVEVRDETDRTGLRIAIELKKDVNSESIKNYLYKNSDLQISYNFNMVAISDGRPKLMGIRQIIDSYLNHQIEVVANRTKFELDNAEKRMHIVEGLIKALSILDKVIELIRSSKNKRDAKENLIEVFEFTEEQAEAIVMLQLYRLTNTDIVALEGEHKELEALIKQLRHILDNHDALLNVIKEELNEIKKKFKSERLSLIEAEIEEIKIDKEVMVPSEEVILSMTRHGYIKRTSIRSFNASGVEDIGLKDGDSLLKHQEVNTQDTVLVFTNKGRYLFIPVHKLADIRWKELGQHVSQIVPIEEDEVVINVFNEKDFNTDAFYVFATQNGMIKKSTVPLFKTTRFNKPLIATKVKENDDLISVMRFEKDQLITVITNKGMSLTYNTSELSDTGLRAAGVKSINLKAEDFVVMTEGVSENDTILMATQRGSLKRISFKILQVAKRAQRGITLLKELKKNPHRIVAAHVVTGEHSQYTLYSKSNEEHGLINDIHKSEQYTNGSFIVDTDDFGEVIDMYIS

For the compound `CCNC(=O)Nc1nc2cc(N3CCCC3=O)cc(-c3ncccn3)c2[nH]1` [Compound I-6], the inhibition constant Ki at E. coli Gyrase (setting [1]) is less than 50 nM. Further, the MIC with Staphylococcus aureus is greater than 7 µg/mL; in the assay with Streptococcus pneumoniae, less than 1 µg/mL; in the assay on Haemophilus influenzae it was greater than 7 µg/mL; with Enterococcus faecalis, 1 to 7 µg/mL (≈ 2.74 to 19.2 µM).
`CCNC(=O)Nc1nc2cc(/C(C)=C/C(=O)N(C)C)cc(-c3ncccc3F)c2[nH]1` [Compound I-8]: the results for the inhibitory constant (Ki) on E. coli Gyrase and on S. aureus TopoIV were 50 to 100 nM and no more than 250 nM, respectively. In addition, the MIC in the assay with Staphylococcus aureus was greater than 7 µg/mL; in the assay with Streptococcus pneumoniae, less than 1 µg/mL; with Haemophilus influenzae, greater than 7 µg/mL; in the assay with Enterococcus faecalis, 1 to 7 µg/mL (≈ 2.44 to 17.1 µM).
With `CCNC(=O)Nc1nc2cc(OC)cc(-n3cccn3)c2[nH]1` [Compound I-1], the inhibition constant Ki at E. coli Gyrase (setting [1]) lay in the range of 50 to 100 nM. For the same compound, the MIC with Staphylococcus aureus is greater than 7 µg/mL; in the assay on Streptococcus pneumoniae, 1 to 7 µg/mL (≈ 3.33 to 23.3 µM); in the assay on Haemophilus influenzae, greater than 7 µg/mL; with Enterococcus faecalis it was greater than 7 µg/mL.
Consider `CCNC(=O)Nc1nc2cc(C(=O)NC)cc(-c3ncccc3F)c2[nH]1` [Compound I-3], for which the Ki at E. coli Gyrase (setting [1]) was less than 50 nM. The MIC in the assay on Staphylococcus aureus was greater than 7 µg/mL; with Streptococcus pneumoniae it was less than 1 µg/mL; in the assay on Haemophilus influenzae, greater than 7 µg/mL; in the assay on Enterococcus faecalis, less than 1 µg/mL.
As to `CCNC(=O)Nc1nc2cc(N3CCN(C(C)=O)CC3)cc(-c3ncccn3)c2[nH]1` [Compound I-5], the inhibitory constant (Ki) on E. coli Gyrase (setting [1]) is less than 50 nM. The MIC with Staphylococcus aureus was greater than 7 µg/mL; in the assay with Streptococcus pneumoniae, less than 1 µg/mL; in the assay with Haemophilus influenzae, greater than 7 µg/mL; in the assay on Enterococcus faecalis it was 1 to 7 µg/mL (≈ 2.45 to 17.1 µM).
Consider `CCNC(=O)Nc1nc2cc(C3CCN(Cc4ccccc4)C(=O)C3)cc(-n3cccn3)c2[nH]1` (centres unmarked) [Compound I-17], for which the Ki is greater than 100 nM at E. coli Gyrase and no more than 250 nM on S. aureus TopoIV. Also, the MIC in the assay with Staphylococcus aureus is 1 to 7 µg/mL (≈ 2.19 to 15.3 µM); in the assay with Streptococcus pneumoniae it was less than 1 µg/mL; in the assay with Haemophilus influenzae it was greater than 7 µg/mL; with Enterococcus faecalis, 1 to 7 µg/mL (≈ 2.19 to 15.3 µM).
On to `CCNC(=O)Nc1nc2cc(C(C)CC(=O)N(C)C)cc(-c3ncccc3F)c2[nH]1` (centres unmarked) [Compound I-19], for which the inhibitory constant (Ki) at E. coli Gyrase was greater than 100 nM; at S. aureus TopoIV, no less than 500 nM. The MIC is greater than 7 µg/mL in the assay with Staphylococcus aureus, 1 to 7 µg/mL (≈ 2.42 to 17 µM) in the assay with Streptococcus pneumoniae, greater than 7 µg/mL in the assay with Haemophilus influenzae and 1 to 7 µg/mL (≈ 2.42 to 17 µM) in the assay with Enterococcus faecalis.
With `CCNC(=O)Nc1nc2cc(F)cc(-c3ncccn3)c2[nH]1` [Compound I-15], the Ki on E. coli Gyrase is less than 50 nM; on S. aureus TopoIV, no less than 500 nM. The MIC with Staphylococcus aureus is greater than 7 µg/mL; in the assay with Streptococcus pneumoniae, 1 to 7 µg/mL (≈ 3.33 to 23.3 µM); in the assay on Haemophilus influenzae it was greater than 7 µg/mL; in the assay with Enterococcus faecalis, 1 to 7 µg/mL (≈ 3.33 to 23.3 µM).
Take `CCNC(=O)Nc1nc2cc(C3CCN(C)C(=O)C3)cc(-c3ncccc3F)c2[nH]1` (centres unmarked) [Compound I-13]: the Ki on E. coli Gyrase was less than 50 nM; at S. aureus TopoIV it was no more than 250 nM. For the same compound, the MIC in the assay on Staphylococcus aureus was 1 to 7 µg/mL (≈ 2.44 to 17.1 µM); in the assay with Streptococcus pneumoniae, less than 1 µg/mL; with Haemophilus influenzae, greater than 7 µg/mL; with Enterococcus faecalis, less than 1 µg/mL.
For `CCNC(=O)Nc1nc2cc(NCc3ccccn3)cc(-c3ncccn3)c2[nH]1` [Compound I-14], the Ki is 50 to 100 nM on E. coli Gyrase and no less than 500 nM on S. aureus TopoIV. In addition, the MIC in the assay on Staphylococcus aureus is greater than 7 µg/mL; with Streptococcus pneumoniae, less than 1 µg/mL; in the assay on Haemophilus influenzae, greater than 7 µg/mL; in the assay on Enterococcus faecalis, 1 to 7 µg/mL (≈ 2.57 to 18 µM).
For `CCNC(=O)Nc1nc2cc(C(=O)OC)cc(-c3ncccc3F)c2[nH]1` [Compound I-7], the inhibitory constant (Ki) on E. coli Gyrase (setting [1]) was less than 50 nM. Also, the MIC was greater than 7 µg/mL with Staphylococcus aureus, 1 to 7 µg/mL (≈ 2.8 to 19.6 µM) in the assay on Streptococcus pneumoniae, greater than 7 µg/mL in the assay on Haemophilus influenzae and 1 to 7 µg/mL (≈ 2.8 to 19.6 µM) with Enterococcus faecalis.
Take `CCNC(=O)Nc1nc2cc(C#N)c(F)c(-n3cccn3)c2[nH]1` [Compound I-16]: the inhibition constant Ki at E. coli Gyrase was less than 50 nM; on S. aureus TopoIV, no less than 500 nM. In addition, the MIC with Staphylococcus aureus was greater than 7 µg/mL; in the assay with Streptococcus pneumoniae, 1 to 7 µg/mL (≈ 3.19 to 22.3 µM); with Haemophilus influenzae it was greater than 7 µg/mL; in the assay with Enterococcus faecalis, greater than 7 µg/mL.
As for `CCNC(=O)Nc1nc2cc(C3=CC(=O)N(Cc4ccccc4)CC3)cc(-n3cccn3)c2[nH]1` [Compound I-18], the Ki is less than 50 nM on E. coli Gyrase and no more than 250 nM on S. aureus TopoIV. Also, the MIC in the assay with Staphylococcus aureus is less than 1 µg/mL; in the assay with Streptococcus pneumoniae it was less than 1 µg/mL; in the assay on Haemophilus influenzae, greater than 7 µg/mL; with Enterococcus faecalis, less than 1 µg/mL.
`CCNC(=O)Nc1nc2cc(C(=O)O)cc(-c3ncccc3F)c2[nH]1` [Compound I-2]: at E. coli Gyrase (setting [1]), the Ki was greater than 100 nM. The MIC with Staphylococcus aureus, with Streptococcus pneumoniae, in the assay on Haemophilus influenzae and in the assay with Enterococcus faecalis was greater than 7 µg/mL throughout.
Take `CCNC(=O)Nc1nc2cc(C#N)cc(-c3ncccc3F)c2[nH]1` [Compound I-4]: the inhibition constant Ki on E. coli Gyrase (setting [1]) lay in the range of 50 to 100 nM. Moreover, the MIC was greater than 7 µg/mL in the assay with Staphylococcus aureus, less than 1 µg/mL in the assay on Streptococcus pneumoniae, greater than 7 µg/mL in the assay with Haemophilus influenzae and 1 to 7 µg/mL (≈ 3.08 to 21.6 µM) with Enterococcus faecalis.
For `CCNC(=O)Nc1nc2cc(/C(C)=C/C(=O)NC)cc(-c3ncccc3F)c2[nH]1` [Compound I-10], the results for the Ki at E. coli Gyrase and at S. aureus TopoIV were less than 50 nM and no more than 250 nM, respectively. Moreover, the MIC with Staphylococcus aureus is greater than 7 µg/mL; in the assay on Streptococcus pneumoniae, less than 1 µg/mL; with Haemophilus influenzae, greater than 7 µg/mL; with Enterococcus faecalis, less than 1 µg/mL.
For `CCNC(=O)Nc1nc2cc(C(C)CC(=O)NC)cc(-c3ncccc3F)c2[nH]1` (centres unmarked) [Compound I-9], the Ki was greater than 100 nM at E. coli Gyrase and no less than 500 nM on S. aureus TopoIV. Also, the MIC in the assay with Staphylococcus aureus was greater than 7 µg/mL; with Streptococcus pneumoniae it was 1 to 7 µg/mL (≈ 2.51 to 17.6 µM); in the assay on Haemophilus influenzae it was greater than 7 µg/mL; in the assay with Enterococcus faecalis, greater than 7 µg/mL.
